Results on four molecules are retold here after PubChem BioAssay AID1259407 (Chemical Carcinogenesis Research Information System (CCRIS), 2018).

The subject of the data set is CCRIS mutagenicity, Ames/micronucleus/aberration tests. Put plainly: CCRIS mutagenicity studies.
Setting [1] is: Test System: AMES SALMONELLA TYPHIMURIUM, Strain/Indicator: TA98, Metabolic Activation: NONE, Method: PREINCUBATION

Each structure is given as a SMILES string. The source made the active and inactive calls. No rule for the calls is given here.

In the case of `Cc1oc(=O)oc1CN1CCN(c2cc3c(cc2F)c(=O)c(C(=O)O)c2n3C(C)S2)CC1` (stereo unspecified), the mutagenic call under setting [1] was “inactive; negative”; the mutagenic call (Test System: AMES SALMONELLA TYPHIMURIUM, Strain/Indicator: TA98, Metabolic Activation: RAT, LIVER, S-9, PHENOBARBITAL AND 5,6-BENZOFLAVONE, Method: PREINCUBATION) was “inactive; negative”; the mutagenic call (Test System: AMES SALMONELLA TYPHIMURIUM, Strain/Indicator: TA100, Metabolic Activation: NONE, Method: PREINCUBATION) was “inactive; negative”; the mutagenic call (Test System: AMES SALMONELLA TYPHIMURIUM, Strain/Indicator: TA100, Metabolic Activation: RAT, LIVER, S-9, PHENOBARBITAL AND 5,6-BENZOFLAVONE, Method: PREINCUBATION) is “inactive; negative”; the mutagenic call (Test System: AMES SALMONELLA TYPHIMURIUM, Strain/Indicator: TA1535, Metabolic Activation: NONE, Method: PREINCUBATION) is “inactive; negative”; the mutagenic call (Test System: AMES SALMONELLA TYPHIMURIUM, Strain/Indicator: TA1535, Metabolic Activation: RAT, LIVER, S-9, PHENOBARBITAL AND 5,6-BENZOFLAVONE, Method: PREINCUBATION) was “inactive; negative”. Also, the mutagenic call (Test System: AMES SALMONELLA TYPHIMURIUM, Strain/Indicator: TA1537, Metabolic Activation: NONE, Method: PREINCUBATION) was “inactive; negative”; the mutagenic call (Test System: AMES SALMONELLA TYPHIMURIUM, Strain/Indicator: TA1537, Metabolic Activation: RAT, LIVER, S-9, PHENOBARBITAL AND 5,6-BENZOFLAVONE, Method: PREINCUBATION) was “inactive; negative”; the mutagenic call (Test System: E. COLI, Strain/Indicator: WP2 UVRA, Metabolic Activation: NONE, Method: PREINCUBATION) was “inactive; negative”; the mutagenic call (Test System: E. COLI, Strain/Indicator: WP2 UVRA, Metabolic Activation: RAT, LIVER, S-9, PHENOBARBITAL AND 5,6-BENZOFLAVONE, Method: PREINCUBATION) was “inactive; negative”.
Turning to `C[n+]1ccc(-c2cc[n+](C)cc2)cc1`, the mutagenic call is “active; positive; maximal response at 48 hr” (End Point: IN VIVO MICRONUCLEUS, Test System: BONE MARROW POLYCHROMATIC ERYTHROCYTES, Species: RAT, Strain/Sex: SPRAGUE DAWLEY/MALE, Route: DERMAL); “inactive; negative” (Test System: AMES SALMONELLA TYPHIMURIUM, Strain/Indicator: TA102, Metabolic Activation: NONE, Method: STANDARD PLATE); “inactive; negative” (Test System: AMES SALMONELLA TYPHIMURIUM, Strain/Indicator: TA2638, Metabolic Activation: NONE, Method: STANDARD PLATE); “inactive; negative” (Test System: CHINESE HAMSTER G10, Strain/Indicator: G10 (GPT)/6-THIOGUANINE, Metabolic Activation: NONE); “inactive; negative” (Test System: CHINESE HAMSTER G12, Strain/Indicator: G12 (GPT)/6-THIOGUANINE, Metabolic Activation: NONE); “inactive; negative” (Test System: CHINESE HAMSTER V-79, Strain/Indicator: V-79 (HPRT)/6-THIOGUANINE, Metabolic Activation: NONE). Also, the mutagenic call by setting is: (Test System: E. COLI, Strain/Indicator: WP2 (PKM101), Metabolic Activation: NONE, Method: STANDARD PLATE) “inactive; negative”; (Test System: E. COLI, Strain/Indicator: WP2 UVRA (PKM101), Metabolic Activation: NONE, Method: STANDARD PLATE) “inactive; negative”.
`O=[N+]([O-])c1ccc2ccc3c4ccccc4cc4ccc1c2c43`: the mutagenic call was “active; positive” (Test System: AMES SALMONELLA TYPHIMURIUM, Strain/Indicator: TA98(1,8-DNP6), Metabolic Activation: NONE); “active; positive” (Test System: AMES SALMONELLA TYPHIMURIUM, Strain/Indicator: TA98 (1,8-DNP6), Metabolic Activation: NONE, Method: STANDARD PLATE); “active; positive” (Test System: AMES SALMONELLA TYPHIMURIUM, Strain/Indicator: TA98(NR), Metabolic Activation: NONE); “active; positive” (Test System: AMES SALMONELLA TYPHIMURIUM, Strain/Indicator: TA98(NR), Metabolic Activation: NONE, Method: PREINCUBATION); “inactive; negative” (Test System: AMES SALMONELLA TYPHIMURIUM, Strain/Indicator: TA98 (NR), Metabolic Activation: NONE, Method: STANDARD PLATE); “active; positive” (Test System: AMES SALMONELLA TYPHIMURIUM, Strain/Indicator: TA98, Metabolic Activation: NONE). Besides, the mutagenic call is “active; positive” (Test System: AMES SALMONELLA TYPHIMURIUM, Strain/Indicator: TA98, Metabolic Activation: NONE', Method: STANDARD PLATE); “active; positive” under setting [1]; “active; positive” (Test System: AMES SALMONELLA TYPHIMURIUM, Strain/Indicator: TA98, Metabolic Activation: NONE, Method: STANDARD PLATE); “active; positive” (Test System: AMES SALMONELLA TYPHIMURIUM, Strain/Indicator: TA98, Metabolic Activation: NONE, Method: STANDARD PLATE (ANAEROBIC)); “active; positive” (Test System: AMES SALMONELLA TYPHIMURIUM, Strain/Indicator: TA98, Metabolic Activation: RAT, LIVER, HEPATOCYTES, AROCLOR 1254); “active; positive” (Test System: AMES SALMONELLA TYPHIMURIUM, Strain/Indicator: TA98, Metabolic Activation: RAT, LIVER, S-9, AROCLOR 1254). Further, the mutagenic call is “active; positive” (Test System: AMES SALMONELLA TYPHIMURIUM, Strain/Indicator: TA100, Metabolic Activation: NONE, Method: STANDARD PLATE); “inactive; negative” (Test System: CHINESE HAMSTER OVARY, Strain/Indicator: CHO-K1-BH4 (HGPRT), Metabolic Activation: NONE); “active; positive” (Test System: CHINESE HAMSTER OVARY, Strain/Indicator: CHO-K1-BH4 (HGPRT), Metabolic Activation: RAT, LIVER, S-9, 3-METHYLCHOLANTHRENE); “inactive; negative” (Test System: CHO/HGPRT, Strain/Indicator: CHO-K1-BH4, Metabolic Activation: NONE); “inactive; negative” (Test System: CHO/HGPRT, Strain/Indicator: CHO-K1-BH4, Metabolic Activation: RAT, LIVER, HEPATOCYTES); “inactive; negative” (Test System: CHO/HGPRT, Strain/Indicator: CHO-K1-BH4, Metabolic Activation: RAT, LIVER, HEPATOCYTES, 3-METHYLCHOLANTHRENE). Moreover, the mutagenic call is, setting by setting: (Test System: CHO/HGPRT, Strain/Indicator: CHO-K1-BH4, Metabolic Activation: RAT, LIVER, HEPATOCYTES, AROCLOR 1254) “inactive; negative”; (Test System: CHO/HGPRT, Strain/Indicator: CHO-K1-BH4, Metabolic Activation: RAT, LIVER, S-9) “inactive; negative”; (Test System: CHO/HGPRT, Strain/Indicator: CHO-K1-BH4, Metabolic Activation: RAT, LIVER, S-9, 3-METHYLCHOLANTHRENE) “active; positive”; (Test System: CHO/HGPRT, Strain/Indicator: CHO-K1-BH4, Metabolic Activation: RAT, LIVER, S-9, AROCLOR 1254) “active; positive”.
As to `CC(C)NCC(O)c1cc(O)cc(O)c1` (stereo unspecified), the mutagenic call (End Point: MORPHOLOGICAL TRANSFORMATION, Test System: SYRIAN HAMSTER EMBRYO CELLS (SHE), Metabolic Activation: NONE) was “inactive; negative”.
